Reference: ChEMBL document CHEMBL2046382, “Synthesis, biological evaluation of 5-carbomethoxymethyl-7-hydroxy-2-pentylchromone, 5-carboethoxymethyl-4',7-dihydroxyflavone and their analogues” (Bioorg Med Chem Lett, 2012)
≈ marks a conversion by molar mass, not a printed value. Calls of active or inactive are those of the source. The calls are words filed in the database; no cut-off is given here.

What was measured:
Staphylococcus aureus [1] = assay: Antibacterial activity against Staphylococcus aureus MTCC 2940 at 80 ug/ml by modified microtiter broth dilution method; format: functional, organism-based
Bacillus subtilis = assay: Antibacterial activity against Bacillus subtilis MTCC 121 by modified microtiter broth dilution method; format: functional
Staphylococcus aureus [2] = assay: Antibacterial activity against Staphylococcus aureus MTCC 96 by modified microtiter broth dilution method; format: functional
Micrococcus luteus [3] = assay: Antibacterial activity against Micrococcus luteus MTCC 2470 at 80 ug/ml by modified microtiter broth dilution method; format: functional, organism-based
Raoultella planticola = assay: Antibacterial activity against Klebsiella planticola MTCC 530 by modified microtiter broth dilution method; format: functional
Escherichia coli = assay: Antibacterial activity against Escherichia coli MTCC 739 at 80 ug/ml by modified microtiter broth dilution method; format: functional, organism-based
Pseudomonas aeruginosa = assay: Antibacterial activity against Pseudomonas aeruginosa MTCC 2453 at 80 ug/ml by modified microtiter broth dilution method; format: functional, organism-based
[4] = system: Radical scavenging activity; assay: Antioxidant activity assessed as DPPH free radical scavenging activity after 48 hrs; format: functional
[5] = Antioxidant activity assessed as superoxide radical scavenging activity after 48 hrs; format: functional
[6] = Antioxidant activity of the compound assessed as inhibition of lipid peroxidation after 48 hrs; format: functional
Erythrocyte = assay: Antioxidant activity in erythrocytes assessed as inhibition of hemolysis after 48 hrs; format: functional, cell-based
[7] = Chemical stability of the compound in antioxidant reaction; format: physicochemical
NCI60 = assay: Cytotoxicity against human NCI60 cells; format: functional, cell-based
Candida albicans [8] = assay: Antifungal activity against Candida albicans MTCC 3958 by well diffusion method; format: functional
Candida albicans [9] = assay: Antifungal activity against Candida albicans MTCC 4748 by well diffusion method; format: functional
Candida albicans [10] = assay: Antifungal activity against Candida albicans MTCC 7315 by well diffusion method; format: functional
Candida albicans [11] = assay: Antifungal activity against Candida albicans MTCC 854 by well diffusion method; format: functional
Candida parapsilosis [12] = assay: Antifungal activity against Candida parapsilosis MTCC 1744 by well diffusion method; format: functional; details: Lodderomyces parapsilosis
Candida parapsilosis [13] = assay: Antifungal activity against Candida parapsilosis MTCC 3018 by well diffusion method; format: functional; details: Lodderomyces parapsilosis
Candida albicans [14] = assay: Antifungal activity against Candida albicans MTCC 1637 by well diffusion method; format: functional
Nakaseomyces glabratus = assay: Antifungal activity against Candida glabrata MTCC 3019 by well diffusion method; format: functional
Candida albicans [15] = assay: Antifungal activity against Candida albicans MTCC 227 by well diffusion method; format: functional
Candida albicans [16] = assay: Antifungal activity against Candida albicans MTCC 183 by well diffusion method; format: functional
Candida albicans [17] = assay: Antifungal activity against Candida albicans MTCC 3017 by well diffusion method; format: functional
Pichia kudriavzevii = assay: Antifungal activity against Issatchenkia orientalis MTCC 3020 by well diffusion method; format: functional
Staphylococcus aureus [18] = assay: Antibacterial activity against Staphylococcus aureus MTCC 2940 by modified microtiter broth dilution method; format: functional
Staphylococcus aureus [19] = assay: Antibacterial activity against Staphylococcus aureus MTCC 96 at 80 ug/ml by modified microtiter broth dilution method; format: functional, organism-based
Micrococcus luteus [20] = assay: Antibacterial activity against Micrococcus luteus MTCC 2470 by modified microtiter broth dilution method; format: functional
[21] = system: Radical scavenging activity; assay: Antioxidant activity assessed as DPPH free radical scavenging activity; format: functional
[22] = Antioxidant activity assessed as superoxide radical scavenging activity; format: functional
[23] = Antioxidant activity of the compound assessed as inhibition of lipid peroxidation; format: functional
[24] = Antioxidant activity in erythrocytes assessed as inhibition of hemolysis; format: functional, cell-based; details: erythrocyte

Structure (SMILES): COC(=O)Cc1cc(O)cc2oc(-c3ccc(OC)c(OC)c3)cc(=O)c12
- Activity (Staphylococcus aureus [1]): inactive
- MIC (Bacillus subtilis): 9 mg/L (≈ 24.3 µM)
- MIC (Staphylococcus aureus [2]): 37 mg/L (≈ 99.9 µM)
- Activity (Micrococcus luteus [3]): inactive
- MIC (Raoultella planticola): 18 mg/L (≈ 48.6 µM)
- Activity (Escherichia coli): inactive
- Activity (Pseudomonas aeruginosa): inactive
- Activity [4]: inactive
- Activity [5]: inactive
- Activity [6]: inactive
- Activity (Erythrocyte): inactive
- Stability [7]: Unstable
- Activity (NCI60): inactive

Structure (SMILES): OC(Cn1cncn1)(Cn1cncn1)c1ccc(F)cc1F [FLUCONAZOLE]
- MIC (Candida albicans [8]): 64 mg/L (≈ 209 µM)
- MIC (Candida albicans [9]): 32 mg/L (≈ 104 µM)
- MIC (Candida albicans [10]): 32 mg/L (≈ 104 µM)
- MIC (Candida albicans [11]): 32 mg/L (≈ 104 µM)
- MIC (Candida parapsilosis [12]): 16 mg/L (≈ 52.2 µM)
- MIC (Candida parapsilosis [13]): 16 mg/L (≈ 52.2 µM)
- MIC (Candida albicans [14]): 32 mg/L (≈ 104 µM)
- MIC (Nakaseomyces glabratus): 64 mg/L (≈ 209 µM)
- MIC (Candida albicans [15]): 32 mg/L (≈ 104 µM)
- MIC (Candida albicans [16]): 32 mg/L (≈ 104 µM)
- MIC (Candida albicans [17]): 64 mg/L (≈ 209 µM)
- MIC (Pichia kudriavzevii): 128 mg/L (≈ 418 µM)

Structure (SMILES): COC(=O)Cc1cc(O)cc2oc(-c3ccc(Cl)c(F)c3)cc(=O)c12
- MIC (Staphylococcus aureus [18]): 18 mg/L (≈ 49.6 µM)
- MIC (Bacillus subtilis): 75 mg/L (≈ 207 µM)
- Activity (Staphylococcus aureus [19]): inactive
- MIC (Micrococcus luteus [20]): 18 mg/L (≈ 49.6 µM)
- MIC (Raoultella planticola): 37 mg/L (≈ 102 µM)
- Activity (Escherichia coli): inactive
- Activity (Pseudomonas aeruginosa): inactive
- MIC (Candida albicans [8]): 4 mg/L (≈ 11 µM)
- MIC (Candida albicans [9]): 4 mg/L (≈ 11 µM)
- MIC (Candida albicans [10]): 9 mg/L (≈ 24.8 µM)
- MIC (Candida albicans [11]): 9 mg/L (≈ 24.8 µM)
- MIC (Candida parapsilosis [12]): 9 mg/L (≈ 24.8 µM)
- MIC (Candida parapsilosis [13]): 9 mg/L (≈ 24.8 µM)
- MIC (Candida albicans [14]): inactive
- MIC (Nakaseomyces glabratus): inactive
- MIC (Candida albicans [15]): inactive
- MIC (Candida albicans [16]): inactive
- MIC (Candida albicans [17]): inactive
- MIC (Pichia kudriavzevii): inactive
- EC50 [21]: 61.66 mg/L (≈ 170 µM)
- EC50 [22]: 60.92 mg/L (≈ 168 µM)
- EC50 [23]: Not Active
- EC50 [24]: Not Active
